biological target: Diamine oxidase [copper-containing] (Sus scrofa); assay: Inhibitory activity against Swine kidney diamine oxidase (SKDAO)

Question: With `CC(=O)N1N=C(c2ccc(O)cc2O)CC1c1cccc(C)c1` (centres undefined) [1-[3-(2,4-Dihydroxy-phenyl)-5-m-tolyl-4,5-dihydro-pyrazol-1-yl]-ethanone] as the molecule, how does the Ki read?
Answer: 25 µM

Question: How did the Ki turn out when `CC(=O)N1N=C(c2ccc(O)cc2O)CC1c1ccccc1C` (centres undefined) [1-[3-(2,4-Dihydroxy-phenyl)-5-o-tolyl-4,5-dihydro-pyrazol-1-yl]-ethanone] was run?
Answer: 100 µM

Question: With `CC(=O)N1N=C(c2ccccc2O)CC1c1cccc(C)c1` (centres undefined) [1-[3-(2-Hydroxy-phenyl)-5-m-tolyl-4,5-dihydro-pyrazol-1-yl]-ethanone] as the molecule, how does the Ki read?
Answer: 8 µM

Question: For `CC(=O)N1N=C(c2ccccc2O)CC1c1ccccc1C` (centres undefined) [1-[3-(2-Hydroxy-phenyl)-5-o-tolyl-4,5-dihydro-pyrazol-1-yl]-ethanone], which Ki is on record?
Answer: 5.5 µM

— BindingDB's records for doi:10.1016/s0960-894x(02)00699-6 (Sapienza University of Rome, 2002)
